In ChEMBL document CHEMBL4418276, “Boldine derivatives for promoting bone growth” (2014) one finds IC50 data, which are given here for one compound.

The term IC50 denotes the concentration needed to halve the response being measured.

Each structure is given as a SMILES string.

For this experiment, the target named is T1, Sclerostin (Homo sapiens, UniProt Q9BQB4).
T1 sequence (Q9BQB4 whole entry): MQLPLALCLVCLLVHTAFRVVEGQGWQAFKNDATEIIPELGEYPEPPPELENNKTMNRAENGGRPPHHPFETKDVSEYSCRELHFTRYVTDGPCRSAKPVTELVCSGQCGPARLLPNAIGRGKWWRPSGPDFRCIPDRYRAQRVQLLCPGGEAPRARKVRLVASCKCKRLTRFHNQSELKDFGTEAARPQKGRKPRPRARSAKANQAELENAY
Kind of experiment: Inhibition of sclerostin in human embryonic cells assessed as restoration of Wnt signaling by luciferase reporter gene assay. It is filed as cell-based.

Turning to `COc1cc2c(cc1OC)-c1c(OC)c(OC)c(C=O)c3c1[C@H](C2)N(C)CC3`, the IC50 was 1500 nM.
